Measurements published in patent US9504674B2, “TrkB agonists and methods of use” (EMORY UNIVERSITY, priority 2010, dated 2016).

What was measured:
[1] = biological target: T1, TrkB F616A (Mus musculus, UniProt P15209, F616A); test: Forced swim test in TrkB F616A knockin mice with or without 1NMPP1; assay type: in vivo; conditions: drugs administrated for 5 days; for immobility time in forced swim test, TrkB F616A knockin mice, after 1NMPP1 treatment: 1NMPP1 (25 μM) in drinking water; for immobility time in forced swim test, TrkB F616A knockin mice, saline group: regular drinking water
T1 construct: from tissue; host or cells: TrkB F616A knock-in mice (brain; whole animal in the forced swim test)
Experimental: Male TrkB knockin mice were given the regular drinking water or 1NMPP1 (25 μM) containing drinking water one day before we started to inject the drugs and sustained throughout the whole experiment. The indicated control (saline) and drugs were administrated for 5 days. […] None of the drugs produced a significant change in 1NMPP1 treated TrkB KI mice (n=6 to 7 mice) as compared to control.
TrkB F616A knockin mice were used to assess whether the behavior responses by 7,8-DHF and its derivative is mediated by TrkB receptor. Transgenic mice were subjected to saline or 1NMPP1 pretreatment, respectively.

[2] = tested on: active caspase-3; test: Kainic acid (KA)-induced neuronal apoptosis in mice (active caspase-3 immunoblotting); assay type: in vivo, mouse; conditions: 5 mg/kg oral
Experimental: C57BL/6J mice were orally administrated with 5 mg/kg of 4′-DMA-7,8-DHF and 7,8-DHF; at different time points, the mice were ip injected with 20 mg/kg KA for 2 h. The brain lysates were analyzed by immunoblotting with anti-p-TrkB, antiactive caspase-3 antibodies, respectively.
Male C57BL/6 mice aged of 60 days were orally injected with a single dose of 4′-DMA-7,8-DHF or 7,8-DHF ([…]). KA (20 mg/kg) (Sigma, MO) was i.p. injected. Animals were continually monitored for 2 h for the onset of seizure activity. At 0, 4 and 8 h following TrkB agonist treatment, the animals were sacrificed and the hippocampal section lysates were analyzed by immunoblotting with p-TrkB, active caspase-3 and total TrkB antibodies.
(§1) To quantitatively compare the anti-apoptotic activity by these two TrkB agonists, cortical neurons were pretreated with various concentrations of 4′-DMA-7,8-DHF and 7,8-DHF for 30 min, followed by […] for 16 h. Cell lysates were quantitatively analyzed with an active caspse-3 ELISA. […] To investigate whether these compounds exert any neuroprotective effects in animals, both compounds (5 mg/kg) were orally injected into mice. At 0, 2 h or 6 h, kainic acid (KA)(20 mg/kg) was administered intraperitoneally. At 2 h, mice were sacrificed and hippocampal regions were prepared. […] This kinetic spectrum tightly coupled to the TrkB activation status observed when treated with 7,8-DHF (FIG. 3C, right panel).

[3] = biological target: T1, TrkB F616A; test: Neuroprotection against KA in TrkB F616A knockin mice with or without 1NMPP1; assay type: in vivo; conditions: for KA-induced caspase-3 activation in TrkB F616A mice: 5 mg/kg oral 4 h before KA 20 mg/kg; for KA-induced caspase-3 activation in TrkB F616A mice / TrkB F616A activation (phosphorylation) in knockin mice: without 1NMPP1; for protective effect against KA in F616A mice after 1NMPP1 pretreatment: 5 mg/kg oral 4 h before KA, 1NMPP1 in drinking water; for TrkB phosphorylation in F616A mice after 1NMPP1 pretreatment / TrkB F616A activation (phosphorylation) in knockin mice: 5 mg/kg oral
Experimental: 4′-DMA-7,8-DHF and 7,8-DHF suppressed KA-induced caspase-3 activation in TrkB F616A mutant knockin mice, which cannot be blocked by 1NMPP1 (top panel).
TrkB F616A knockin mice (2-3 months old) were fed with 1NMPP1 (25 mM) in drinking water one day before pharmacological reagent treatment. Next day, the mice were orally injected with 7,8-DHF or 4′-DMA-7,8-DHF (5 mg/kg) 4 h before kainic acid (20 mg/kg). The control mice were injected with saline, 1NMPP1, kainic acid alone or administrated 7,8-DHF or 4′-DMA-7,8-DHF 4 h before kainic acid. In 4 days, the mice were sacrificed and brains were homogenated and ultracentrafuged. The supernatant ([…]) was employed for SDS-PAGE and immunoblotting analysis with indicated antibodies, respectively.

[4] = tested on: Akt and MAPK; test: Downstream p-Akt / p-MAPK signaling in mouse brain after oral administration (immunoblotting, p-Akt ELISA); assay type: in vivo; conditions: 1 mg/kg oral; for Akt and MAPK activation (TrkB signaling) in mouse brain at 2 h: C57BL/6J mice, p-Akt 473 and p-MAPK immunoblotting
Experimental: The data were from two sets of replicated experiments.
1 mg/kg of various compounds were orally administrated into C57 BL/6J mice and TrkB phosphorylation and its downstream signaling cascades including Akt and MAPK in mouse brain were analyzed by immunoblotting at 2 h.
The brain lysates were prepared and analyzed with p-Akt ELISA kit.
The compounds were orally injected (1 mg/kg) into C57BL/6J mice. The TrkB and its downstream signaling cascades activation at 2 h were examined after drug administration with mouse brain tissues. […] The downstream p-Akt and p-MAPK tightly coupled to p-TrkB signals.

[5] = tested on: active caspase-3; test: Active caspase-3 ELISA in glutamate-treated cortical neurons; assay type: cell-based, rat; conditions: 30 min pretreatment, then glutamate 16 h; for caspase-3 activation after glutamate: 50 nM or higher
Experimental: 4′-Dimethylamino-7,8-dihydroxyflavone prevents neurons from apoptosis in a TrkB-dependent manner. Cortical neurons were prepared from E16 rat embryonic. The neurons were pretreated with different doses of compounds as indicated for 30 min, followed by 50 μM glutamate for 16 h. The cell lysates were analyzed by active caspase-3 ELISA.
as §1

T1 sequence (P15209 32-821 F616A): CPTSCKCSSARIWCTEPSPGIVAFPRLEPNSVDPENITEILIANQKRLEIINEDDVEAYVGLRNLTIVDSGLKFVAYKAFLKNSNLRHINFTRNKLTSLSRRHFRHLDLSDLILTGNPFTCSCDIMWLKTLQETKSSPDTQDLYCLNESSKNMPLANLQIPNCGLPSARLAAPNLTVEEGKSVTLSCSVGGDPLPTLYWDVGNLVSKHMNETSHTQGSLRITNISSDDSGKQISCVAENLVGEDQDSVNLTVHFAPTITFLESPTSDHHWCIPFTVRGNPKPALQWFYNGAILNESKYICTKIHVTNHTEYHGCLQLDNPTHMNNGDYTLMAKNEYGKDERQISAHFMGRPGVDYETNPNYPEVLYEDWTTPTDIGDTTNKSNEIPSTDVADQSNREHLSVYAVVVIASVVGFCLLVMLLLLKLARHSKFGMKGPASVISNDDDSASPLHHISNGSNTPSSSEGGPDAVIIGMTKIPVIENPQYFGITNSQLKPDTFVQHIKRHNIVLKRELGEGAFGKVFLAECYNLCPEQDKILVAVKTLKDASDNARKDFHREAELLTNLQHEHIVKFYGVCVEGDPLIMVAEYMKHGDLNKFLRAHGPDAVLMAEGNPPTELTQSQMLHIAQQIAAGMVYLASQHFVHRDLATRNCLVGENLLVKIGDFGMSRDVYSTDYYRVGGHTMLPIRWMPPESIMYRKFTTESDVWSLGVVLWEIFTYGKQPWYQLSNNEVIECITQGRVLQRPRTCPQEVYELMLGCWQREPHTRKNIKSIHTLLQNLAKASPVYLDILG

| Structure (SMILES) | immobility time in forced swim test, TrkB F616A knockin mice, after 1NMPP1 treatment [1] | immobility time in forced swim test, TrkB F616A knockin mice, saline group [1] | KA-induced neuronal apoptosis over time after dosing ([2]; KA 20 mg/kg i.p. at 0, 2 h or 6 h, hippocampal lysates) | KA-induced caspase-3 activation in TrkB F616A mice [3] | protective effect against KA in F616A mice after 1NMPP1 pretreatment [3] | TrkB phosphorylation in F616A mice after 1NMPP1 pretreatment [3] | TrkB F616A activation (phosphorylation) in knockin mice [3] | Akt and MAPK activation (TrkB signaling) in mouse brain at 2 h [4] | inhibition of caspase-3 activation after glutamate ([5]; 10 nM) | caspase-3 activation after glutamate [5] | KA-induced caspase-3 activation at 4 h ([2]; KA 20 mg/kg i.p., 4 h) | active caspase-3 at 8 h ([2]; KA 20 mg/kg i.p., 8 h) | Akt activation in mouse brain (p-Akt ELISA), compared with compound i ([4]; brain lysates, time course) |
| --- | --- | --- | --- | --- | --- | --- | --- | --- | --- | --- | --- | --- | --- |
| CN(C)c1ccc(-c2cc(=O)c3ccc(O)c(O)c3o2)cc1 [4′-DMA-7,8-DHF, 4′-dimethylamino-7,8-dihydroxyflavone] | neither 4′-DMA-7,8-DHF nor 7,8-DHF had any significant effect on the immobility time | substantially reduced the immobility time | gradually decreased over time | markedly diminished | abolished | notably blocked by 1NMPP1 pretreatment | strongly activated | potently activated TrkB signaling in mouse brain | more robust inhibitory effect than 7,8-DHF | substantially blocked caspase-3 activation | – | – | – |
| O=c1cc(-c2ccccc2)oc2c(O)c(O)ccc12 [7,8-DHF, 7,8-dihydroxyflavone, reference compound] | neither 4′-DMA-7,8-DHF nor 7,8-DHF had any significant effect on the immobility time | substantially reduced the immobility time | – | markedly diminished | abolished | notably blocked by 1NMPP1 pretreatment | strongly activated | – | – | substantially blocked caspase-3 activation | reduced | slightly increased | – |
| CN(C)c1ccc(-c2cc(=O)c3ccc4nc[nH]c4c3o2)cc1 [compound m, 8-(4-(dimethylamino)phenyl)chromeno[7,8-d]imidazol-6(1H)-one] | – | – | – | – | – | – | – | potently activated TrkB signaling in mouse brain | – | – | – | – | more robust and sustained Akt activation than compound i |
